The compounds below were run against T1, rat P2X3 receptor (Rattus norvegicus, UniProt P49654) (assay: P2X3 FLIPR (Fluorometric Imaging Plate Reader) assay). Settings: CHO-K1 cells transfected with cloned rat P2X3; agonist α,β-meATP 1 μM; Fluo-3 AM calcium fluorescence.
T1 construct: expressed in transfected cells; host or cells: CHO-K1
T1 sequence (P49654 1-397): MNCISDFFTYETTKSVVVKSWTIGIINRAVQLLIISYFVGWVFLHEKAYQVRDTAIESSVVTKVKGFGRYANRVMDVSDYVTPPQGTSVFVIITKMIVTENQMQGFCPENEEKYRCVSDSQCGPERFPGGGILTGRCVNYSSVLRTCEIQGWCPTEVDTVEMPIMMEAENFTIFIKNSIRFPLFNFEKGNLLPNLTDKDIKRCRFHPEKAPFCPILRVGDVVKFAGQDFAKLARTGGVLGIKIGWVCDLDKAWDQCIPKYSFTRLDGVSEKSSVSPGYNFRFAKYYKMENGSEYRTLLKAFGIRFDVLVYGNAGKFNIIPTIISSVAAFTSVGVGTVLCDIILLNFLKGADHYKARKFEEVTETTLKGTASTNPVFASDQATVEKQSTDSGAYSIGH
Assay type: cell-based
Description: CHO-K1 cells were transfected with cloned rat P2X3 or human P2X2/3 receptor subunits and passaged in flasks. 18-24 hours before the FLIPR experiment, cells were released from their flasks, centrifuged, and resuspended in nutrient medium at 2.5×10^5 cells/ml. The cells were aliquoted into black-walled 96-well plates at a density of 50,000 cells/well and incubated overnight in 5% CO2 at 37° C. On the day of the experiment, cells were washed in FLIPR buffer (calcium- and magnesium-free Hank's balanced salt solution, 10 mM HEPES, 2 mM CaCl2, 2.5 mM probenecid; FB). Each well received 100 μl FB and 100 μl of the fluorescent dye Fluo-3 AM [2 μM final conc.]. After a 1 hour dye loading incubation at 37° C., the cells were washed 4 times with FB, and a final 75 μl/well FB was left in each well.
Test compounds (dissolved in DMSO at 10 mM and serially diluted with FB) or vehicle were added to each well (25 μl of a 4× solution) and allowed to equilibrate for 20 minutes at room temperature. The plates were then placed in the FLIPR and a baseline fluorescence measurement (excitation at 488 nm and emission at 510-570 nm) was obtained for 10 seconds before a 100 μl/well agonist or vehicle addition. The agonist was a 2X solution of α,β-meATP producing a final concentration of 1 μM (P2X3) or 5 μM (P2X2/3). Fluorescence was measured for an additional 2 minutes at 1 second intervals after agonist addition. A final addition of ionomycin (5 μM, final concentration) was made to each well of the FLIPR test plate to establish cell viability and maximum fluorescence of dye-bound cytosolic calcium. Peak fluorescence in response to the addition of α,β-meATP (in the absence and presence of test compounds) was measured and inhibition curves generated using nonlinear regression. PPADS, a standard P2X antagonist, was used as a positive control.

Row | Structure (SMILES) | P2X3 (pIC50 values for the P2X3 receptor)
1 | COCC(C)NC(=O)c1cc(NC(=O)C2CCCCC2)cc(-c2ccc(C)cc2)c1 (stereo not drawn) [Compound 7, 5-(Cyclohexanecarbonyl-amino)-4′-methyl-biphenyl-3-carboxylic acid (2-methoxy-1-methyl-ethyl)-amide] | 5.49
2 | COCC(=O)N(C)c1cc(C(=O)NC(C)c2cnccn2)cc(-c2ccc(C)cc2)c1 (stereo not drawn) [Compound 22, 5-[(2-Methoxy-acetyl)-methyl-amino]-4′-methyl-biphenyl-3-carboxylic acid (1-pyrazin-2-yl-ethyl)-amide] | 6.69
3 | COCC(C)NC(=O)c1cc(NC(=O)c2c(-c3ccccc3)noc2C)cc(-c2ccc(C)cc2)c1 (stereo not drawn) [Compound 12, 5-Methyl-3-phenyl-isoxazole-4-carboxylic acid [5-(2-methoxy-1-methyl-ethylcarbamoyl)-4′-mcthyl-biphenyl-3-yl]-amide] | 5.59
4 | COCC(C)NC(=O)c1cc(NC(=O)c2ccccn2)cc(-c2ccc(C)cc2)c1 (stereo not drawn) [Compound 6, Pyridine-2-carboxylic acid [5-(2-methoxy-1-methyl-ethylcarbamoyl)-4′-methyl-biphenyl-3-yl]-amide] | 5.62
5 | COCC(C)NC(=O)c1cc(NC(=O)c2ccc(C)cc2C)cc(-c2ccc(C)cc2)c1 (stereo not drawn) [Compound 8, 5-(2,4-Dimethyl-benzoylamino)-4′-methyl-biphenyl-3-carboxylic acid (2-methoxy-1-methyl-ethyl)-amide] | 5.35
6 | CCN(C(=O)CC(C)C)c1cc(C(=O)NC(C)c2cnccn2)cc(-c2ccc(C)cc2)c1 (stereo not drawn) [Compound 29, 5-[Ethyl-(3-methyl-butyryl)-amino]-4′-methyl-biphenyl-3-carboxylic acid (1-pyrazin-2-yl-ethyl)-amide] | 7.38
7 | CCN(C(C)=O)c1cc(C(=O)NC(C)c2cnccn2)cc(-c2ccc(C)cc2)c1 (stereo not drawn) [Compound 21, 5-(Acetyl-ethyl-amino)-4′-methyl-biphenyl-3-carboxylic acid (1-pyrazin-2-yl-ethyl)-amide] | 7.28
8 | COCC(C)NC(=O)c1cc(NC(=O)c2cscn2)cc(-c2ccc(C)cc2)c1 (stereo not drawn) [Compound 11, Thiazole-4-carboxylic acid [5-(2-methoxy-1-methyl-ethylcarbamoyl)-4′-methyl-biphenyl-3-yl]-amide] | 5.56
9 | COCC(C)NC(=O)c1cc(NC(=O)c2nc(C)oc2C)cc(-c2ccc(C)cc2)c1 (stereo not drawn) [Compound 13, 2,5-Dimethyl-oxazole-4-carboxylic acid [5-(2-methoxy-1-methyl-ethylcarbamoyl)-4′-methyl-biphenyl-3-yl]-amide] | 5.93
10 | COCC(C)NC(=O)c1cc(NC(=O)c2cc(C)cs2)cc(-c2ccc(C)cc2)c1 (stereo not drawn) [Compound 1, 4-Methyl-thiophene-2-carboxylic acid [5-(2-methoxy-1-methyl-ethylcarbamoyl)-4′-methyl-biphenyl-3-yl]-amide] | 6.31
11 | COCC(C)NC(=O)c1cc(NC(=O)c2ccco2)cc(-c2ccc(C)cc2)c1 (stereo not drawn) [Compound 3, Furan-2-carboxylic acid [5-(2-methoxy-1-methyl-ethylcarbamoyl)-4′-methyl-biphenyl-3-yl]-amide] | 5.66
12 | CC(=O)N(c1cc(C(=O)NC(C)c2cnccn2)cc(-c2ccc(C)cc2)c1)c1ccncn1 (stereo not drawn) [Compound 24, 5-(Acetyl-pyrimidin-4-yl-amino)-4′-methyl-biphenyl-3-carboxylic acid (1-pyrazin-2-yl-ethyl)-amide] | 6.31

The remaining lines, values ahead:

Row | P2X3 (pIC50 values for the P2X3 receptor) | Structure (SMILES)
13 | 7.57 | Cc1ccc(-c2cc(C(=O)NC(C)c3cnccn3)cc(N(C)C(=O)C3CCCC3)c2)cc1 (stereo not drawn) [Compound 51, 5-(Cyclopentanecarbonyl-methyl-amino)-4′-methyl-biphenyl-3-carboxylic acid (1-pyrazin-2-yl-ethyl)-amide]
14 | 8.01 | Cc1ccc(-c2cc(C(=O)NC(C)c3cnccn3)cc(N(C)C(=O)C(C)(C)C)c2)cc1 (stereo not drawn) [Compound 32, 5-[(2,2-Dimethyl-propionyl)-methyl-amino]-4′-methyl-biphenyl-3-carboxylic acid (1-pyrazin-2-yl-ethyl)-amide]
15 | 7.85 | Cc1ccc(-c2cc(C(=O)N[C@@H](C)CO)cc(N(C)C(=O)C3CCCC3)c2)cc1 [Compound 50, 5-(Cyclopentanecarbonyl-methyl-amino)-4′-methyl-biphenyl-3-carboxylic acid ((S)-2-hydroxy-1-methyl-ethyl)-amide]
16 | 8.04 | CCC(C)C(=O)N(C)c1cc(C(=O)NC(C)c2cnccn2)cc(-c2ccc(C)cc2)c1 (stereo not drawn) [Compound 46, 4′-Methyl-5-[methyl-(2-methyl-butyryl)-amino]-biphenyl-3-carboxylic acid (1-pyrazin-2-yl-ethyl)-amide]
17 | 8.25 | Cc1ccc(-c2cc(C(=O)NC(C)c3cnccn3)cc(N(C)C(=O)C(C)C)c2)c(F)c1 (stereo not drawn) [Compound 58, 2′-Fluoro-5-(isobutyryl-methyl-amino)-4′-methyl-biphenyl-3-carboxylic acid (1-pyrazin-2-yl-ethyl)-amide]
18 | 7.5 | CC(C)C(=O)N(C)c1cc(C(=O)NC(C)c2cnccn2)cc(-c2ccc(Cl)cc2Cl)c1 (stereo not drawn) [Compound 64, 2′,4′-Dichloro-5-(isobutyryl-methyl-amino)-biphenyl-3-carboxylic acid (1-pyrazin-2-yl-ethyl)-amide]
19 | 7.28 | CCN(C(=O)OC)c1cc(C(=O)NC(C)c2cnccn2)cc(-c2ccc(C)cc2)c1 (stereo not drawn) [Compound 39, Ethyl-[4′-methyl-5-(1-pyrazin-2-yl-ethylcarbamoyl)-biphenyl-3-yl]-carbamic acid methyl ester]
20 | 7.8 | Cc1ccc(-c2cc(C(=O)NCc3cnccn3)cc(N(C)C(=O)C(C)C)c2)c(F)c1 [Compound 60, 2′-Fluoro-5-(isobutyryl-methyl-amino)-4′-methyl-biphenyl-3-carboxylic acid (pyrazin-2-ylmethyl)-amide]
21 | 8.11 | Cc1ccc(-c2cc(C(=O)NC(C)c3cnccn3)cc(N(C)C(=O)C(C)C)c2)nc1 (stereo not drawn) [Compound 70, 3-(Isobutyryl-methyl-amino)-5-(5-methyl-pyridin-2-yl)-N-(1-pyrazin-2-yl-ethyl)-benzamide]
22 | 7.37 | CCC(C)C(=O)N(C)c1cc(C(=O)N[C@@H](C)CO)cc(-c2ccc(C)cc2)c1 (stereo partly drawn) [Compound 53, 4′-Methyl-5-[methyl-(2-methyl-butyryl)-amino]-biphenyl-3-carboxylic acid ((S)-2-hydroxy-1-methyl-ethyl)-amide]
23 | 5.7 | CC(=O)N1CCC(C(=O)N(C)c2cc(C(=O)NC(C)c3cnccn3)cc(-c3ccc(C)cc3)c2)CC1 (stereo not drawn) [Compound 61, 1-Acetyl-piperidine-4-carboxylic acid methyl-[4′-mcthyl-5-(1-pyrazin-2-yl-ethylcarbamoyl)-biphenyl-3-yl]-amide]
24 | 5.53 | Cc1ccc(-c2cc(C(=O)N[C@@H](C)CO)cc(N(C)C(=O)C(C)C)c2)c(Cl)c1 [Compound 55, 2′-Chloro-5-(isobutyryl-methyl-amino)-4′-methyl-biphenyl-3-carboxylic acid ((S)-2-hydroxy-1-methyl-ethyl)-amide]
25 | 8.3 | Cc1ccc(-c2cc(C(=O)N[C@@H](C)CO)cc(N(C)C(=O)C(C)C)c2)cc1 [Compound 40, 5-(Isobutyryl-methyl-amino)-4′-methyl-biphenyl-3-carboxylic acid ((S)-2-hydroxy-1-methyl-ethyl)-amide]
26 | 5.86 | Cc1ccc(-c2cc(C(=O)NC(C)c3cnccn3)cc(N(C)C(=O)C3CCOCC3)c2)cc1 (stereo not drawn) [Compound 43, Tetrahydro-pyran-4-carboxylic acid methyl-[4′-methyl-5-(1-pyrazin-2-yl-ethylcarbamoyl)-biphenyl-3-yl]-amide]

Same assay, conditions: CHO-K1 cells transfected with cloned rat P2X3; agonist α,β-meATP 1 μM; Fluo-3 AM calcium fluorescence; read-out: P2X3 (pIC50 values for the P2X3 receptor) (converted)

Row | IC50 | Structure (SMILES)
27 | 10.7 nM | Cc1ccc(-c2cc(C(=O)NC(C)c3cnccn3)cc(N(C)C(=O)C3CC3)c2)cc1 (stereo not drawn) [Compound 34, 5-(Cyclopropanecarbonyl-methyl-amino)-4′-methyl-biphenyl-3-carboxylic acid (1-pyrazin-2-yl-ethyl)-amide]

From patent US9505726B2, “Substituted biphenyl amides as P2X3 and P2X2/3 antagonists” (Roche Palo Alto LLC, priority 2009, dated 2016)
